Source: patent US20100168228A1, “NOVEL CHEMOTHERAPEUTIC AGENTS AGAINST INFLAMMATION AND CANCER” (RELIANCE LIFE SCIENCES PVT. LTD., priority 2006, published 2010)

Legend:
RAW 264.7 cells = test: Nitrite quantification (Griess) in LPS stimulated macrophages; type: cell-based, mouse; settings: RAW 264.7 + LPS (200 ng/ml) + 10 μM compound, 24 h; LPS + DMSO control 14.560, basal 0.782
Experimental: NO2^− accumulation was used as an indicator of Nitric Oxide (NO) production in the medium as described previously (Green et al., 1982 Anal Biochem 126, 131-138). […] The isolated supernatants were mixed with an equal volume of Griess reagent (1% sulfanilamide, 0.1% naphthylenediamine dihydrochloride, and 2% phosphoric acid) and incubated at room temperature for 15 min. NaNO2 was used to generate a standard curve, and nitrite production was determined by measuring the optical density at 540 nm.
To estimate the anti-inflammatory effects of all the synthetic molecules listed in this study, we measured the accumulation of nitrite, the stable metabolite of NO, in the culture media using Griess reagent.
To investigate the effect of CAMVE on NO production, we measured the accumulation of nitrite, the stable metabolite of NO, in the culture media using Griess reagent. To investigate the effect of CAMVE on NO production, Raw 264.7 cells, pretreated with indicated concentrations of CAMVE for 1 h were incubated with LPS (250 ng/ml) for 24 h.

TNFα = test: Bioassay of TNFα production by LPS activated RAW 264.7 macrophages using L929 cell line; type: cell-based; settings: Mus musculus; L929 + ActD + supernatant from LPS + compound (10 μM) treated RAW 264.7 macrophage; crystal violet; mean ± S.D. of triplicate; read-out: PERCENTAGE CELL SURVIVAL ± S.D.
Experimental: Measurement of TNFα in culture medium or supernatant is performed using immunoassay and bioassay. Bioassay was used for the measurement of bioactive TNFα production in the culture medium.
TNFα secretion into the medium by LPS activated macrophage was assayed using L929 tumorigenic murine cells (ATCC) specifically sensitive to TNFα. L929 cell cytotoxicity assay was performed by a modified method (Sano et al., The Journal of Immunology, 1999, 163: 387-395 The Journal of Immunology, 1999, 163: 387-395) based on that described elsewhere (Flick D A, Gifford G E. J Immunol Methods. 1984 Mar. 30; 68(1-2): 167-175). Briefly, the L929 cells (log phase cells) were seeded into a flat bottom 96 well plates (6×10^4/well) in 100 μl volume of RPMI 1640 containing 2% FCS and incubated overnight at 37° C. in a 5% CO2 incubator. A working dilution of the culture supernatant collected from LPS (200 ng/ml) activated macrophage in a volume of 100 μl per well was first tested to obtain 70-75% cytotoxicity equivalent to […] of recombinant TNFα standard to the TNFα sensitive L929 cell line. After incubation of the L929 cells appropriate fixed dilution of the culture supernatant collected from the compound treated (10 μM) wells, containing the LPS stimulated macrophages in a volume of 100 μl with 2 μg/ml Actinomycin D (Act D) was taken and added to the L929 cells and the cells were incubated at room temperature for 15 min followed by 18 h incubation at 37° C. overnight with 5% CO2. On the next day the medium was removed and the cells were stained with 0.2% (w/v) crystal violet for 10 minutes. The wells were gently rinsed with water, and 33% acetic acid (100 μl/well) was added to extract the retained crystal violet. The absorbance at 570 nm was finally measured.
Tumor necrosis factor-α can cause direct cytotoxicity to the lung fibroblast cell line (L929). Bioassay of TNF α is designated on the basis of this cytotoxicity of TNF α, which can be used for the identification of murine TNF α activity in tissue culture supernatants. Culture supernatant collected from the synthetic molecules treated well containing LPS stimulated macrophage modulated the extent of cytotoxicity to the L929 cells (see Table 1).

SMILES | CONCENTRATION OF NITRITE μM ± SD (RAW 264.7 cells) [µM] | viability at 10 µM (TNFα) [%]
COC(=O)/C=C/c1ccc(OC(=O)c2ccc(O)c(OC)c2)c(OC)c1 [compound 11, 2-methoxy-4-[(1E)-3-methoxy-3-oxoprop-1-en-1yl]phenyl 4-hydroxy-3-methoxybenzoate] | 5.604 ± 0.668 | 52.4 ± 1.51
COc1cc(C=O)ccc1OC(=O)/C=C/c1ccc(O)cc1 [compound 19, 4-formyl-2-methoxyphenyl (2E)-3-(4-hydroxyphenyl)acrylate] | 8.227 ± 0.115 | 51.6 ± 1.57
C/C=C/c1cc(OC)c2c(c1)[C@@H](C)[C@H](c1ccc(OC(=O)c3ccc(O)c(OC)c3)c(OC)c1)O2 (racemic) [compound 16, (±)-2β-[4-O-(3-methoxy-4-hydroxybenzoyl)-3-methoxyphenyl]-3α-methyl-7-methoxy-5-[(E)-1-propenyl]-2,3-dihydrobenzofuran] | 8.449 ± 0.234 | 49 ± 1.99
COC(=O)/C=C/c1cc(OC)c2c(c1)[C@@H](C(=O)OC)[C@H](c1ccc(OC(=O)c3ccc(O)c(OC)c3)c(OC)c1)O2 [compound 12, Methyl(E)-3-[2β-{4-O-(3-methoxy-4-hydroxyphenylcarbonyl)-3-methoxyphenyl}-7-methoxy-3α-methoxycarbonyl-2,3-dihydro-1-benzofuran-5-yl]prop-2-enoate] | 9.582 ± 0.482 | 51.3 ± 1.21
C=CCc1ccc(OC(=O)/C=C/c2ccc(O)c(O)c2)c(OC)c1 [compound 4, 4-allyl-2-methoxyphenyl (2E)-3-(3,4-dihydroxyphenyl)acrylate] | 3.093 ± 0.437 | 69.1 ± 1.49
COC(=O)c1ccc(OC(=O)c2ccc(O)c(OC)c2)c(OC)c1 [compound 10, 2-methoxy-4-(methoxycarbonyl)phenyl 4-hydroxy-3-methoxy benzoate] | 6.849 ± 0.806 | 51.6 ± 1.4
C/C=C/c1cc(OC)c2c(c1)[C@@H](C)[C@H](c1ccc(OC(=O)/C=C/c3ccc(O)c(OC)c3)c(OC)c1)O2 (racemic) [compound 25, (±)-2β-[4-O-(3-methoxy-4-hydroxycinnamoyl)-3-methoxyphenyl]-3α-methyl-7-methoxy-5-[(E)-1-propenyl]-2,3-dihydrobenzofuran] | 7.871 ± 0.168 | 53.7 ± 2.05
COC(=O)/C=C/c1cc(OC)c2c(c1)[C@@H](C(=O)OC)[C@H](c1ccc(OC(=O)/C=C/c3ccc(O)c(O)c3)c(OC)c1)O2 [compound 6, Methyl (E)-3-[2β-{4-O-(3,4-dihydroxycinnamoyl)-3-methoxyphenyl}-7-methoxy-3α-methoxycarbonyl-2,3-dihydro-1-benzofuran-5-yl]prop-2-enoate] | 3.204 ± 0.168 | 66.6 ± 1.49
COC(=O)c1ccccc1OC(=O)/C=C/c1ccc(O)cc1 [compound 20, methyl 2-{[(2E)-3-(4-hydroxyphenyl)prop-2-enoyl]oxy}benzoate] | 8.493 ± 0.267 | 51.9
COC(=O)/C=C/c1ccc(OC(=O)/C=C/c2ccc(O)cc2)c(OC)c1 [compound 18, 2-methoxy-4-[(1E)-3-methoxy-3-oxoprop-1-en-1-yl]phenyl (2E)-3-(4-hydroxyphenyl)acrylate] | 7.960 ± 0.437 | 50.4 ± 1.57
C=CCc1ccc(OC(=O)/C=C/c2ccc(O)cc2)c(OC)c1 [compound 21, 4-allyl-2-methoxyphenyl (2E)-3-(4-hydroxyophenyl)acrylate] | 8.293 ± 0.371 | 52.3 ± 1.25
COc1cc(C(=O)Oc2ccc(C=O)cc2OC)ccc1O [compound 15, 4-formyl-2-methoxyphenyl 4-hydroxy-3-methoxybenozoate] | 8.271 ± 0.342 | 50.9 ± 1.84
C/C=C/c1ccc(OC(=O)c2ccc(O)c(OC)c2)c(OC)c1 [compound 14, 2-Methoxy-4-[(1E)-prop-1en-1-yl]phenyl4-hydroxy-3-methoxy benzoate] | 8.382 ± 0.278 | 51 ± 1.91
COc1cc(C=O)ccc1OC(=O)/C=C/c1ccc(O)c(O)c1 [compound 8, 4-formyl-2-methoxyphenyl (2E)-3-(3,4-dihydroxyphenyl)acrylate] | 3.893 ± 0.133 | 67.8 ± 1.25
COC(=O)c1ccccc1OC(=O)/C=C/c1ccc(O)c(O)c1 [compound 3, Methyl 2-{[(2E)-3-(3,4-dihydroxyphenyl)prop-2-enoyl]oxy}benzoate] | 3.022 ± 0.300 | 67 ± 2.3
C/C=C/c1cc(OC)c2c(c1)[C@@H](C)[C@H](c1ccc(OC(=O)/C=C/c3ccc(O)c(O)c3)c(OC)c1)O2 (racemic) [compound 5, (±)-2β-[4-O-(3,4,-dihydroxycinnamoyl)-3-methoxyphenyl]-3α-methyl-7-methoxy-5-[(E)-1-propenyl]-2,3 dihydrobenzofuran] | 3.449 ± 0.315 | 67.8 ± 0.866
COC(=O)c1ccc(OC(=O)/C=C/c2ccc(O)cc2)c(OC)c1 [compound 17, methyl 4-{[(2E)-3-(4-hydroxyphenyl)prop-2-enoyl]oxy}-3-methoxy benzoate] | 8.404 ± 0.315 | 51.9 ± 1.43
COC(=O)/C=C/c1ccc(OC(=O)/C=C/c2ccc(O)c(O)c2)c(OC)c1 [compound 2, 2-methoxy-4-[(1E)-3-methoxy-3-oxoprop-1-en-1-yl]phenyl (2E)-3-(3,4 dihydroxyphenyl)acrylate] | 2.404 ± 0.168 | 68
C/C=C/c1ccc(OC(=O)/C=C/c2ccc(O)cc2)c(OC)c1 [compound 23, 2-methoxy-4-[(1E)-prop-1-en-1-yl]phenyl (2E)-3-(4-hydroxyphenyl)acrylate] | 8.338 ± 0.204 | 51.2 ± 1.55
COC(=O)/C=C/c1cc(OC)c2c(c1)[C@@H](C(=O)OC)[C@H](c1ccc(OC(=O)/C=C/c3ccc(O)cc3)c(OC)c1)O2 [compound 24] | 8.582 ± 0.214 | 50.3 ± 1.28
COC(=O)c1ccccc1OC(=O)c1ccc(O)c(OC)c1 [compound 9, 2-(Methoxycarbonyl)phenyl 4-hydroxy-3-methoxybenzoate] | 7.582 ± 0.868 | 51.1 ± 2.77
COc1cc([C@@H]2Oc3c(O)cc(/C=C/C(=O)O)cc3[C@H]2C(=O)O)ccc1O [compound 28, 5-[(E)-2-carboxyvinyl]-7-hydroxy-2β-(4-hydroxy-3-methoxyphenyl)-2,3-dihydro-1-benzofuran-3α-carboxylic acid] | 7.604 ± 0.204 | 66.4 ± 1.11
COC(=O)/C=C/c1ccc(OC(=O)/C=C/c2ccc(O)cc2)c(OC(=O)/C=C/c2ccc(O)cc2)c1 [compound 22, methyl [3,4-bis O-(4-hydroxyphenylacryloyl)]phenylacrylate] | 3.982 ± 0.301 | 65.6 ± 1.33
C/C=C/c1ccc(OC(=O)/C=C/c2ccc(O)c(O)c2)c(OC)c1 [compound 7, 2-methoxy-4-[(1E)-prop-1-en-1-yl]phenyl(2E)-3-(3,4-dihydroxyphenyl)acrylate] | 3.760 ± 0.546 | 65.3 ± 1.11
C=CCc1ccc(OC(=O)c2ccc(O)c(OC)c2)c(OC)c1 [compound 13, 4-allyl-2-methoxyphenyl 4-hydroxy-3-methoxybenzoate] | 8.004 ± 0.379 | 50.6 ± 1.6
COC(=O)c1ccc(OC(=O)c2cc(O)c(O)c(O)c2)c(OC)c1 [compound 26, 2-methoxy-4-(methoxycarbonyl)phenyl 3,4,5-trihydroxybenzoate] | 6.138 ± 0.567 | 58.8 ± 2.15
